According to patent US20220002551A1, “A NOVEL CLASS OF PIGMENTS IN ASPERGILLUS” (DANMARKS TEKNISKE UNIVERSITET, priority 2019, published 2022):

Assay: Color intensity E1% of cavernamine-L powder and its formulation
Format: physicochemical
Description: The dilution mixture was adjusted to pH 5 with Sodium Hydroxide 2 M. The cavernamine-L powder was added to the dilution mixture in a concentration of 0.5 g/L and mixed for 5 minutes. The colored solution was then frozen prior to lyophilzation. Diluted red powder was recovered and the color intensity of the formulated cavernamine-L was detected to be E1% (at 492 nm) of 2.2, compared to E1% (at 492 nm) of 220 of original pure cavernamine-L powder.

color intensity E1% (at 492 nm): 220
SMILES: C/C=C\C1=CC2=CC3=C(C(=O)C(C)CC)C(=O)OC3(C)C(=O)C2=CN1C(CC(C)C)C(=O)O (stereo not drawn) [cis-cavernamine-L]
